Experimental data from PMC12071940, “Shortened PGLYRP1 Peptides Regulate Antitumor Activity of Cytotoxic Lymphocytes via TREM-1 Receptor: From Biology to Bioinformatics” (International Journal of Molecular Sciences, 2025).
Ends that are not written are not given here.

Columns and labels:
[1] = test system: MHC-negative tumor cells; conditions: ref [24,27,42]; cited from earlier work
Excerpt: The interaction of ligands with TREM-1 on the cell membrane leads to dimerization of the receptor, followed by activation of the metalloprotease MMP-9 [37], cleavage, and dissociation of the exodomain from the cell surface. sTREM-1 is considered a biomarker of infection and viral diseases. Further activation of the receptor develops in two ways. Triggering cascades of tyrosine kinases leads to activation of the NFkß factor, expression of pro-inflammatory cytokines, and development of inflammatory processes. In turn, the release of cytokines leads to the appearance of ...

[2] = test system: tumor cells (K562); parameters: method as in printed at the place; conditions: other TREM-1 ligands, 'just as it was shown'; no ref given; cited from earlier work
[3] = test system: K562 cells; assay: Cytotoxic activity of human PBMC incubated 6 days with Tag7 peptides (single or combined), tested on K562 cells; format: cell-based; conditions: single peptide, 10^−9 M, human PBMC 6 days, then K562; n = 5
Description: The synthesized peptides were incubated with isolated human PBMC for 6 days. Thereafter, the activated lymphocytes were added to MHC-negative tumor cells of the K562 line, and their cytotoxic effect on these cells was determined.
(§1) The combined effect of these peptides stimulated the activation of cytotoxic lymphocytes. […] In addition, the induction of the cytotoxic effect of lymphocytes is TREM-1-dependent.
K562, RAW264.7 cells were cultivated in RPMI-1640 (Himedia Laboratories Private Limited, Maharashtra, India) with 2 mM L glutamine, 10% FCS (Invitrogen, Carlsbad, CA, USA), with 1% kanamycin (Thermo Fisher Scientific, Waltham, MA, USA). […] CD4+ (CD8+) T-lymphocytes were isolated from the PBMCs using the Dynabeads^TM Untouched^TM Human CD4 T Cells Kit, and NK cells were isolated from PBMC by Dynabeads^TM Untouched^TM Human NK Cells Kit according to the manufacturer’s protocol (Thermo Fisher Scientific, Waltham, MA, USA).
(§2) For cytotoxicity tests, cells of the K562 line were cultured in 96-well plates (Luoyang Fudau Biotech Co, Luoyang, Henan, China) (6 × 10^4 per well) before the addition of lymphocytes (1.2 × 10^6 per well) and then incubated at 37 °C in an atmosphere with 5% CO2 for 3–20 h. Cytotoxicity was measured using a Cytotox 96 analysis kit (Promega, Madison, WI, USA) after 24 h of incubation in accordance with the manufacturer’s protocol. […] Polyclonal antibodies to Tag7 were obtained from ABclonal (ABclonal, Woburn, MA, USA). Monoclonal antibodies to TREM-1 were obtained from Thermo Fisher Scientific (Thermo Fisher Scientific, Waltham, MA, USA).

[4] = test system: TREM-1 receptor; assay: Inhibition of cytotoxic activity of PBMC induced by peptide N3; format: cell-based, human; conditions: PBMC preincubated 1 h with peptide (10^−9 M), then N3 added; cytotoxicity after 6 days, K562
Description: The inhibitory and activating activities were investigated. To determine the inhibitory activity, PBMC were preincubated with the studied peptides for 1 h, then the activating peptide N3 was added, and the cytotoxic activity of lymphocytes was determined after 6 days.
as §2

[5] = test system: TREM-1 receptor; assay: Inhibition of cytotoxicity induced by the sum of N9 and N15 peptides; format: cell-based, human; conditions: PBMC with N9 + N15, 6 days; K562
Description: as §1, §2

For “HMGB1: multifunctional protein, TREM-1 ligand”, the “stimulation of cytokines and activation of cytotoxic lymphocytes” value (“stimulation” for short) [1] is listed as “not only stimulate the production of pro-inflammatory cytokines but also induce the activation of cytotoxic lymphocytes against MHC-negative tumor cells” and the “type of tumor cell death induced” value [2] is listed as “induced apoptosis and necroptosis in tumor cells”.
With RYVVVSHTAGSSCNT [N15] the “activation of cytotoxic lymphocytes” value [3] was “do not activate cytotoxic lymphocytes” and the “inhibition of N3-stimulated cytotoxic activity” value [4] was “had no inhibitory effect on the induction of the TREM-1-dependent signal”.
With RNVQHYHMKT [17.0] the “activation of cytotoxic lymphocytes” value [3] was “do not activate cytotoxic lymphocytes”, the “inhibition of cytotoxicity of the sum of N9 and N15” value [5] was “inhibited” and the “inhibition of N3-stimulated cytotoxic activity” value [4] was “inhibited the development of cytotoxic activity stimulated by peptide N3”.
For PASCQQQAR [N9], the “activation of cytotoxic lymphocytes” value [3] was “do not activate cytotoxic lymphocytes” and the “inhibition of N3-stimulated cytotoxic activity” value [4] was “inhibited the development of cytotoxic activity stimulated by peptide N3”.
With “LQVTDSGLYRCVIYHPP [LP17, reference compound]” the “inhibition of cytotoxicity of the sum of N9 and N15” value [5] was “inhibited”.
For “Hsp70: main heat shock protein, TREM-1 ligand”, the “stimulation” value [1] is listed as “not only stimulate the production of pro-inflammatory cytokines but also induce the activation of cytotoxic lymphocytes against MHC-negative tumor cells” and the “type of tumor cell death induced” value [2] is listed as “induced apoptosis and necroptosis in tumor cells”.
For “Tag7: innate immunity protein PGLYRP1; recombinant Tag7”, the “stimulation” value [1] is listed as “not only stimulate the production of pro-inflammatory cytokines but also induce the activation of cytotoxic lymphocytes against MHC-negative tumor cells” and the “type of tumor cell death induced” value [2] is listed as “induced apoptosis and necroptosis in tumor cells”.
